Source: ChEMBL document CHEMBL1201862, “PubChem BioAssay data set” (2004)
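All cell lines were grown in 96-well plates and treated with compound for 48 hours. GI50 is the concentration that inhibits growth by half.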 Activity calls are given as the source filed them. Cut-off read from the data, not from the text of the source: active = GI50 up to about 1.1 µM and inactive = higher.

Key:
Assay in all cases: NCI-60 cell line screen, 48 h
A498 = system: A498
A549 = system: A549
BT-549 = system: BT-549
CAKI-1 = system: CAKI-1
COLO 205 = system: COLO 205
HCC 2998 = system: HCC 2998
KM12 = system: KM12
MCF7 = system: MCF7
MDA-MB-435 = system: MDA-MB-435
NCI/ADR-RES = system: NCI/ADR-RES
OVCAR-4 = system: OVCAR-4
PC-3 = system: PC-3
SF-295 = system: SF-295
SK-MEL-5 = system: SK-MEL-5
SW-620 = system: SW-620
TK-10 = system: TK-10
Hs-578T = system: Hs-578T
SR = system: SR
UACC-62 = system: UACC-62

Measured: GI50

CC(=O)Nc1ccc2cc(C#N)c(=O)[nH]c2n1
inactive: A498 > 100 µM | A549 > 100 µM | BT-549 > 100 µM | CAKI-1 > 100 µM | COLO 205 > 100 µM | HCC 2998 > 100 µM | KM12 64.3 µM | MCF7 > 100 µM | MDA-MB-435 > 100 µM | NCI/ADR-RES > 100 µM | OVCAR-4 > 100 µM | PC-3 > 100 µM | SF-295 > 100 µM | SK-MEL-5 > 100 µM | SW-620 > 100 µM | TK-10 > 100 µM

CCOC(=O)C1(C(=O)OCC)C[C@H](C)[C@](C)(O)C1
inactive: A498 > 100 µM | A549 > 100 µM | CAKI-1 > 100 µM | COLO 205 > 100 µM | Hs-578T > 100 µM | KM12 > 100 µM | MCF7 > 100 µM | MDA-MB-435 > 100 µM | NCI/ADR-RES > 100 µM | OVCAR-4 > 100 µM | PC-3 > 100 µM | SF-295 > 100 µM | SK-MEL-5 > 100 µM | SR > 100 µM | SW-620 > 100 µM | TK-10 > 100 µM | UACC-62 > 100 µM

O=c1c(Cl)nsnc1Cl
inactive: A549 26.3 µM | CAKI-1 4.26 µM | COLO 205 1.83 µM | HCC 2998 19.4 µM | Hs-578T 30.2 µM | KM12 > 38.7 µM | MCF7 6.22 µM | MDA-MB-435 14.2 µM | NCI/ADR-RES 40.1 µM | OVCAR-4 5.15 µM | PC-3 16.2 µM | SF-295 18.4 µM | SK-MEL-5 16.5 µM | SR 1.95 µM | SW-620 3.43 µM | TK-10 2.57 µM | UACC-62 11.1 µM

Cc1ccc(-c2nc3n(c2/C=N\N=C(N)N)CCS3)cc1
inactive: A498 16.8 µM | A549 15.9 µM | CAKI-1 17.9 µM | COLO 205 14.5 µM | HCC 2998 11.6 µM | Hs-578T 18.1 µM | KM12 15 µM | MDA-MB-435 15.5 µM | NCI/ADR-RES 29.9 µM | OVCAR-4 16.6 µM | PC-3 15 µM | SF-295 12.2 µM | SK-MEL-5 14.2 µM | SR 59 µM | SW-620 15.7 µM | TK-10 19 µM | UACC-62 18.1 µM

O=C1/C(=N\NC(=S)Nc2ccc(Cl)cc2)c2cc([N+](=O)[O-])ccc2N1CN1CCOCC1
inactive: A549 8.22 µM | CAKI-1 3.52 µM | COLO 205 13.2 µM | Hs-578T 7.03 µM | KM12 11.7 µM | MCF7 5.24 µM | MDA-MB-435 6.38 µM | NCI/ADR-RES 2.2 µM | OVCAR-4 10 µM | PC-3 10.2 µM | SF-295 4.97 µM | SK-MEL-5 4 µM | SR 1.99 µM | SW-620 4.37 µM | TK-10 12.2 µM | UACC-62 5.31 µM
